Assay results reported in ChEMBL document CHEMBL1201862, “PubChem BioAssay data set” (2004).
Active and inactive are the calls of the source.

Key:
Type in all cases: functional
[1] = target: Ras and Rab interactor 1/Tyrosine-protein kinase ABL1 (Homo sapiens, UniProt P00519+Q13671);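 also: biochemical TR-FRET dose-response test measuring inhibition of binding between Rin1 and Abl proteins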
Genome polyprotein = Genome polyprotein (dengue virus type 2, UniProt P29990); test: Dengue-2 NS5 methyltransferase inhibitors, primary screen, biochemical, confirmation dose response (AID 588689)
Protein RecA = target: T1, Protein RecA (Mycobacterium tuberculosis, UniProt P9WHJ3); test: Fluorescence Cell-Free Homogeneous Dose Retest to Identify Inhibitors of RecA-Intein Splicing Activity. [Related pubchem assays (depositor defined):AID2097, AID2223, AID489010, AID492950]
T1 sequence (P9WHJ3 whole entry): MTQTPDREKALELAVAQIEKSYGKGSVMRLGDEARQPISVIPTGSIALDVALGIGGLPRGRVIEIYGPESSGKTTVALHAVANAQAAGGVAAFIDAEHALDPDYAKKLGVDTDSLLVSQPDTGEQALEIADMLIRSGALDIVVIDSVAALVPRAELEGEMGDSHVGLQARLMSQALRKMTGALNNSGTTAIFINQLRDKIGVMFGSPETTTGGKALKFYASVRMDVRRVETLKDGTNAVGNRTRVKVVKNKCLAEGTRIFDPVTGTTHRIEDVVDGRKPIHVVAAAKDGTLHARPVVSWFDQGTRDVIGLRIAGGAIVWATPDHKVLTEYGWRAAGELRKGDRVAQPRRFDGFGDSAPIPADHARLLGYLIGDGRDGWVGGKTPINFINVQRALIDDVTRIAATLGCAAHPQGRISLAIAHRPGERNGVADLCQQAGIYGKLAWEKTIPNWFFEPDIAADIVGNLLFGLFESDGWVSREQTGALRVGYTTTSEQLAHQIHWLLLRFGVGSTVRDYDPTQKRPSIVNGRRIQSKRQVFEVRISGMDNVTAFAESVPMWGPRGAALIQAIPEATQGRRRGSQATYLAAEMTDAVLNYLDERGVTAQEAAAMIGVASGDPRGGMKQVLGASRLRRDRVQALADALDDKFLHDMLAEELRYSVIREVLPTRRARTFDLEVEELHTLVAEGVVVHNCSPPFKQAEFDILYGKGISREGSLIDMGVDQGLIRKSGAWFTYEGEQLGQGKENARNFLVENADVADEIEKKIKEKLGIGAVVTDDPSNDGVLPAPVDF

Vero = Vero cell cytotoxicity, cytotoxicity control for flavivirus capping enzyme inhibitors (AID 588742); conditions: Chlorocebus sabaeus
[2] = target: T2, Replicative DNA helicase DnaB (Mycobacterium tuberculosis, UniProt P9WMR3); test: DnaB intein splicing inhibitors, dose response, biochemical, cell-free fluorescence (AID 449749)
T2 sequence (P9WMR3 whole entry): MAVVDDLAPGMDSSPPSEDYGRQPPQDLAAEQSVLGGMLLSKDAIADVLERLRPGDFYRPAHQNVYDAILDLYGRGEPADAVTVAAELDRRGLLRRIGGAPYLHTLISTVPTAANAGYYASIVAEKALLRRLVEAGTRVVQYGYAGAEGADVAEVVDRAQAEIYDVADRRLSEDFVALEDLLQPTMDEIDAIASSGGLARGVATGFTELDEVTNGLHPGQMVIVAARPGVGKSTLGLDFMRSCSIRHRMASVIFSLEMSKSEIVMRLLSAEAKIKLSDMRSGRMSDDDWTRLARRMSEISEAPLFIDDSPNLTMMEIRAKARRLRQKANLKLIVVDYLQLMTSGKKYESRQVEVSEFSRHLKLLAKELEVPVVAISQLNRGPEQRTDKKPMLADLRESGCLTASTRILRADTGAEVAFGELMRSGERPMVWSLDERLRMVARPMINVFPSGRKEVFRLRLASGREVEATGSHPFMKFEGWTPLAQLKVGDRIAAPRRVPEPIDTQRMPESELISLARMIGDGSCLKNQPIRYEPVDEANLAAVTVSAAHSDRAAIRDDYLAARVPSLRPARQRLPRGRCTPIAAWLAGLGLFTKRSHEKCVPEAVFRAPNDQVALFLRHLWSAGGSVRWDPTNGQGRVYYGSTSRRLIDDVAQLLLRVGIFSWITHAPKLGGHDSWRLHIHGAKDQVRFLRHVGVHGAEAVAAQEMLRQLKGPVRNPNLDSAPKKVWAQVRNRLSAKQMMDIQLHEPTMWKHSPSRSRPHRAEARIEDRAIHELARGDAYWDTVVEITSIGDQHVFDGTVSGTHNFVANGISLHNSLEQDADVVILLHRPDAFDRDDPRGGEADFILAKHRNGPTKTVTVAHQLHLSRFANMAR

Cysteine protease ATG4B = target: T3, Cysteine protease ATG4B (Homo sapiens, UniProt Q9Y4P1);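 also: Fluorescence-based dose-response confirmation assay measuring inhibition of ATG4B activity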
T3 sequence (Q9Y4P1 whole entry): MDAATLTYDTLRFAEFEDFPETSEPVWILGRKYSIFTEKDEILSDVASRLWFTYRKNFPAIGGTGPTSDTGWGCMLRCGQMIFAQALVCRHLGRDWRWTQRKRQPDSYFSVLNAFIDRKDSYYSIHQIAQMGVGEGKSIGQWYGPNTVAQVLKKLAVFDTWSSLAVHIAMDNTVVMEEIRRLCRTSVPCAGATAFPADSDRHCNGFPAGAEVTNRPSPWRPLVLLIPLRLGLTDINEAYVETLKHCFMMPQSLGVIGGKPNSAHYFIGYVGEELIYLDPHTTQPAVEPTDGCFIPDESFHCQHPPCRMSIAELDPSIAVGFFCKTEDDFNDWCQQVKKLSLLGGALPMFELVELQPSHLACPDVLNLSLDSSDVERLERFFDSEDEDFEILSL

Phospholipase A2 = Phospholipase A2 (Homo sapiens, UniProt P04054);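 also: confirmatory dose-response counterscreen on phospholipase A2, testing hits that came from an ultra-high-throughput screen for ATG4B inhibitors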
[3] = target: T4, Sentrin-specific protease 8 (Homo sapiens, UniProt Q96LD8); test: SENP8 protease inhibitors, SAR follow-up, biochemical, luminescence (AID 504501)
T4 sequence (Q96LD8 whole entry): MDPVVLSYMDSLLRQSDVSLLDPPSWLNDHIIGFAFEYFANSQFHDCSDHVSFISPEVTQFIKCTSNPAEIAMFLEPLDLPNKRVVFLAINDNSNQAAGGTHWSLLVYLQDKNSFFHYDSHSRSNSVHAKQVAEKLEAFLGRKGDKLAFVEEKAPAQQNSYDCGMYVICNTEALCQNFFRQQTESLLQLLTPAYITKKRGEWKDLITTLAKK

[4] = target: T5, Sentrin-specific protease 6 (Homo sapiens, UniProt Q9GZR1); test: SAR Analysis of small molecule inhibitors of Sentrin-specific protease 6 (SENP6) using a Luminescent assay. [Related pubchem assays (depositor defined):AID2582, AID2599]
T5 sequence (Q9GZR1 whole entry): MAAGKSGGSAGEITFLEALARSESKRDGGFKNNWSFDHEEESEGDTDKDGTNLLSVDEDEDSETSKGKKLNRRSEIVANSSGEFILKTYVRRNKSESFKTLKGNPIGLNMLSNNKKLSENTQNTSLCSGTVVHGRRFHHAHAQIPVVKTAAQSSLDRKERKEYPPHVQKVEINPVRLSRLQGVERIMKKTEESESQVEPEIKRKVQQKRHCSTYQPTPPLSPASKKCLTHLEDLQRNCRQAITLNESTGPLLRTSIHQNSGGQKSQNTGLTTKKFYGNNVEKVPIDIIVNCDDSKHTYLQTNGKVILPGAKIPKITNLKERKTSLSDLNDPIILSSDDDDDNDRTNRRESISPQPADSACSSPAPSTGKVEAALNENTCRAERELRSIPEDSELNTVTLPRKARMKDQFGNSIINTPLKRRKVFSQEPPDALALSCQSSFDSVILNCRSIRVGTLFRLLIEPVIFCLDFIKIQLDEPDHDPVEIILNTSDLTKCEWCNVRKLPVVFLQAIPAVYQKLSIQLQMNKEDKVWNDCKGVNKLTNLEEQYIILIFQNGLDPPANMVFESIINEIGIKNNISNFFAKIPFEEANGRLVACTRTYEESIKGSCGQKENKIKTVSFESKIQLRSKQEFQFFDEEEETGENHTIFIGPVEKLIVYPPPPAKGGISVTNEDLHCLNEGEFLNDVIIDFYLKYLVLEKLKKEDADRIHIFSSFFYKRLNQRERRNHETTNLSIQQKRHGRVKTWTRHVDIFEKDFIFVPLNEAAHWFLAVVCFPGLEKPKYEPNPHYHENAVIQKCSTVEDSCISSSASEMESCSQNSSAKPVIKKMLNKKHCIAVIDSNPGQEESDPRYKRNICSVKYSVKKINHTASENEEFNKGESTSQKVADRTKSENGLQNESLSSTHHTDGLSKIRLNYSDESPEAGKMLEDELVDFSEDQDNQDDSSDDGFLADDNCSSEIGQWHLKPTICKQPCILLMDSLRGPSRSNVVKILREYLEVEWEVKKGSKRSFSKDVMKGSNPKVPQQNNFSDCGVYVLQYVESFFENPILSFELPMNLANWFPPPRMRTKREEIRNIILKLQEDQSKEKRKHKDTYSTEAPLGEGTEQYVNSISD

Caspase-3 = target: T6, Caspase-3 (Homo sapiens, UniProt P42574); test: SAR Analysis of small molecule inhibitors of Sentrin-specific proteases (SENPs) using a Caspase-3 Selectivity assay. [Related pubchem assays (depositor defined):AID2540, AID2599, AID434973, AID489001]
T6 sequence (P42574 whole entry): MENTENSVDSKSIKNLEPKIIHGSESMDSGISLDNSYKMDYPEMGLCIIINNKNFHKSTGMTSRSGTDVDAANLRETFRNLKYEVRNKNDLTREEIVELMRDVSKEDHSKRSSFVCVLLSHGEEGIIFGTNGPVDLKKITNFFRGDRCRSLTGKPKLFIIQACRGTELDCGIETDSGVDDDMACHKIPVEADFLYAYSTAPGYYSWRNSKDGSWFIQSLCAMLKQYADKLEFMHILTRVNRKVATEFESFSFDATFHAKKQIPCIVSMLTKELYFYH

[5] = target: T7, Sentrin-specific protease 7 (Homo sapiens, UniProt Q9BQF6); test: SENP7 protease inhibitors, SAR follow-up, biochemical, luminescence (AID 504497)
T7 sequence (Q9BQF6 whole entry): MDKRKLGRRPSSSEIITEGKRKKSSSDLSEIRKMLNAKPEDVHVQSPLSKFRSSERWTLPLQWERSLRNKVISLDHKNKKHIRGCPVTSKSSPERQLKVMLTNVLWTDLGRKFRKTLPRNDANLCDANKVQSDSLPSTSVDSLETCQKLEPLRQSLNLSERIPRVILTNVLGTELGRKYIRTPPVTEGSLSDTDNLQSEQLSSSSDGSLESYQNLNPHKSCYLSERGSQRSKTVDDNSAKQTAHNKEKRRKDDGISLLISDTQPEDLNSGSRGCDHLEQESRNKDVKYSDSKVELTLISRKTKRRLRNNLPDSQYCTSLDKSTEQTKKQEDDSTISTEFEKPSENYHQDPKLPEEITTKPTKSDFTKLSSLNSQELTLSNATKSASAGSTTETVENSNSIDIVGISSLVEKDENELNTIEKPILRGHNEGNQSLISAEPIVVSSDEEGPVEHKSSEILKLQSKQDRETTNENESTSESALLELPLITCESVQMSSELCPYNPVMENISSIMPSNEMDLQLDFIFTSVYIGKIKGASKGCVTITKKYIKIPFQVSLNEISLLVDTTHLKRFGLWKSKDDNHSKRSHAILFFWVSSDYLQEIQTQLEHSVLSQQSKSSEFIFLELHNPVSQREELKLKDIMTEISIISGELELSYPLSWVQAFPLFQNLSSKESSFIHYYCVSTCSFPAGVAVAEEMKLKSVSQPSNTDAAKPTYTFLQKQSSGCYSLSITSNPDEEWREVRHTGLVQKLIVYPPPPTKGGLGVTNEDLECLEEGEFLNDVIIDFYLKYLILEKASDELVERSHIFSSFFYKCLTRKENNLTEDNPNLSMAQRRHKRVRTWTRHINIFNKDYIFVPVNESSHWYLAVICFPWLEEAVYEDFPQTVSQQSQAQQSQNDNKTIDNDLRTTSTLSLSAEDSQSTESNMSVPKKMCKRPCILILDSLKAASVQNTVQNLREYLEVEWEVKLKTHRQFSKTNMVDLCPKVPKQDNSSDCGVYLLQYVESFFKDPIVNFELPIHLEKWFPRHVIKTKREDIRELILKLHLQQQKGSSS

Chain of Phospholipase A2 (P04054 whole entry): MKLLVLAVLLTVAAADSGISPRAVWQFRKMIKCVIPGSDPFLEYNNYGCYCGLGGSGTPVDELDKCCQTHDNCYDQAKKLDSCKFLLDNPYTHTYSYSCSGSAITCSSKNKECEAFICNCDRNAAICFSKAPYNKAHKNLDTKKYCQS
Chain of Ras and Rab interactor 1/Tyrosine-protein kinase ABL1 (P00519 whole entry): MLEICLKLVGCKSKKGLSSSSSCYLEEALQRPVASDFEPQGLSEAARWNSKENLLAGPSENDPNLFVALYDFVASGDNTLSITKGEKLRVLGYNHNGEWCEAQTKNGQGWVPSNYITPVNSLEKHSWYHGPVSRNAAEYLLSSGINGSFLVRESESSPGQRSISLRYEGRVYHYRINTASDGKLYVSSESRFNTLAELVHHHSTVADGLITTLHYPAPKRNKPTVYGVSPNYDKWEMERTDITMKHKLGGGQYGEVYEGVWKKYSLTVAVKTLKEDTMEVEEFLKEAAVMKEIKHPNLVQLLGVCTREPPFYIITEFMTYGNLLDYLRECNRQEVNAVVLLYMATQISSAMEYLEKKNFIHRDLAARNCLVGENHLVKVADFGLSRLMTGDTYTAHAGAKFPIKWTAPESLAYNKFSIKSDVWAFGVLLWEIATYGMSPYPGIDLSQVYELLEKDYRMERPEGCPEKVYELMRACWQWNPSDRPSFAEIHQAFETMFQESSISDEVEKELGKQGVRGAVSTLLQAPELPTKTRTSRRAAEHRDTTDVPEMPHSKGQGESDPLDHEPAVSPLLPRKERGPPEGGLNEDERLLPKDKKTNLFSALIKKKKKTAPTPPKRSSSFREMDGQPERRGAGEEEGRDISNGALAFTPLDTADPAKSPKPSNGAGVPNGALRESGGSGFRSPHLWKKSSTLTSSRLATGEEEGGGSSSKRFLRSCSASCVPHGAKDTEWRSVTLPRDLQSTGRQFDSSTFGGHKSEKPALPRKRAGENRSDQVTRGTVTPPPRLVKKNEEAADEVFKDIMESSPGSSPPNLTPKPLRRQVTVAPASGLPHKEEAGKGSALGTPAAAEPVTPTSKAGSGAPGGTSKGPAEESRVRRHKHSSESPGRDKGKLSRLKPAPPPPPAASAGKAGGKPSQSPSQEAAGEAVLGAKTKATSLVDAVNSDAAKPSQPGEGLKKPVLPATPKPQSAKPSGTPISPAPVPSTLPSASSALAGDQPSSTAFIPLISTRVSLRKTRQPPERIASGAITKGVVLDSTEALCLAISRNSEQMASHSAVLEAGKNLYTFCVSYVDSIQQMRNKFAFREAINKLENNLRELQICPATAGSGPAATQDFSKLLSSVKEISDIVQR
Chain of Ras and Rab interactor 1/Tyrosine-protein kinase ABL1 (Q13671 whole entry): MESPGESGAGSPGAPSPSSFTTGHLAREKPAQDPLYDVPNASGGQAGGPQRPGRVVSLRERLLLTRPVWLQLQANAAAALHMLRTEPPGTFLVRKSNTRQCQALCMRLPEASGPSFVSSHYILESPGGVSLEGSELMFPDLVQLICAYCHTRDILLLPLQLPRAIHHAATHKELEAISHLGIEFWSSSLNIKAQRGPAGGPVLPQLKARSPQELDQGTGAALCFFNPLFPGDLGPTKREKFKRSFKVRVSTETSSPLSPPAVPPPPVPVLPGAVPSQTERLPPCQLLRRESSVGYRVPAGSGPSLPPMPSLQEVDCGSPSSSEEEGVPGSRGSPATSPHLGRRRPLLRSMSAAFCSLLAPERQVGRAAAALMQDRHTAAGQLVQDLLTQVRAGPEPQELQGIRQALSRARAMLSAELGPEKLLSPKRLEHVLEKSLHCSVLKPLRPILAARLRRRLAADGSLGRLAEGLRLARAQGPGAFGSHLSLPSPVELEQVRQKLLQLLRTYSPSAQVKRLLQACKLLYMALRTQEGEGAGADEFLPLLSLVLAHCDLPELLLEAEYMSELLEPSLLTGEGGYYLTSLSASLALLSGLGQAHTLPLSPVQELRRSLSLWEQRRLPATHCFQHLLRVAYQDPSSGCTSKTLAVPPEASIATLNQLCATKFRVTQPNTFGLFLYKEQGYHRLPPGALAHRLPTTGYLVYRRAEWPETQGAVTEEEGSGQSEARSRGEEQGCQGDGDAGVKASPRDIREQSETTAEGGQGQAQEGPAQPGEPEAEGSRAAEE
Chain of Genome polyprotein (P29990 2492-3391 limits assumed): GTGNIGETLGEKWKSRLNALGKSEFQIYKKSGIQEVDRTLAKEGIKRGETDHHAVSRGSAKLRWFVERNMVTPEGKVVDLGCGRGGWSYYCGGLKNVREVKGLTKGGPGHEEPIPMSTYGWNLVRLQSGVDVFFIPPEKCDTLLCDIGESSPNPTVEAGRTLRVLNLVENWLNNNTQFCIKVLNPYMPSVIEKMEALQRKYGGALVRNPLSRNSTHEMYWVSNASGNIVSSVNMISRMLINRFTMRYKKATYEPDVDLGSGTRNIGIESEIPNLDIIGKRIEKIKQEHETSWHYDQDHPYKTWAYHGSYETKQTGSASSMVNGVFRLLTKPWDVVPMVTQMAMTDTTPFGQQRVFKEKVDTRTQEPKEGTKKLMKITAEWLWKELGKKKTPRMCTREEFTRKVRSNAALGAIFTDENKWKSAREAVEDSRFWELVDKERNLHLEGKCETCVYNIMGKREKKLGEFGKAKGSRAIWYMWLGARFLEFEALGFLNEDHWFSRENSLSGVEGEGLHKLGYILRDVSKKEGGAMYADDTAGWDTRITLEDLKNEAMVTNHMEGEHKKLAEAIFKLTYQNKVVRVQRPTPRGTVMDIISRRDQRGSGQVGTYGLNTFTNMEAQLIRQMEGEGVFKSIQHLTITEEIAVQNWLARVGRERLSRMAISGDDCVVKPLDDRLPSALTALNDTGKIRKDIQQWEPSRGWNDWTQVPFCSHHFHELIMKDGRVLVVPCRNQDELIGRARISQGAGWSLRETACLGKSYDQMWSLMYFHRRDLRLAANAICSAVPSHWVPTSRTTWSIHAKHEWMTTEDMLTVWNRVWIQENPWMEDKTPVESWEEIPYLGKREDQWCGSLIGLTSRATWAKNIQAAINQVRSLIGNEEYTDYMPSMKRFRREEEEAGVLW

Row | SMILES | IC50 [3] | IC50 [4] | IC50 (Caspase-3) | IC50 [5] | other results
1 | COc1ccc(CCNc2cc(=O)[nH]c(N)n2)cc1 | – | – | – | – | IC50 [1]: 5.15 µM (active)
2 | Cc1nn(Cc2ccccc2)c2c1C(c1cccc(Cl)c1)C(C#N)=C(N)O2 (centres undefined) | – | – | – | – | IC50 (Genome polyprotein): > 100 µM (active); EC50 (Protein RecA): 3.26 µM (active); CC50 (Vero): > 40 µM (active); AC50 [2]: 5.7 µM (active)
3 | O=C(O)c1cccc(CN2C(=O)S/C(=C/c3cccc([N+](=O)[O-])c3)C2=O)c1 | – | – | – | – | IC50 (Genome polyprotein): 83.2 µM (active); CC50 (Vero): > 40 µM (active)
4 | Nc1nn(-c2ccccc2)c(N)c1N=Nc1ccccc1 | – | – | – | – | IC50 (Cysteine protease ATG4B): 11.9 µM (active); IC50 (Phospholipase A2): 9 µM (active)
5 | CCOc1ccc(CCNC(=O)CN2C(=O)c3cccnc3Oc3ccc(Cl)cc32)cc1 | – | – | – | – | IC50 [1]: > 73.5 µM (inactive)
6 | COc1ccc2nc(NC(=O)c3ccc4c(c3)OCCO4)sc2c1 | > 99 µM (inactive) | > 99 µM (inactive) | > 99 µM (inactive) | > 99 µM (inactive) | –
7 | Cc1csc(C(=O)Nc2nc3ccc(Cl)cc3s2)c1 | > 99 µM (inactive) | > 99 µM (inactive) | 36 µM (active) | 89 µM (active) | –
8 | Cc1cc(NC(=O)COC(=O)CNC(=O)c2sc3ccccc3c2Cl)no1 | > 99 µM (inactive) | > 99 µM (inactive) | > 99 µM (inactive) | > 99 µM (inactive) | –
9 | CC(C)(C)c1ccccc1/N=C/c1ccc2ccccc2n1 | – | – | – | – | IC50 (Cysteine protease ATG4B): 14.2 µM (active); IC50 (Phospholipase A2): 16.2 µM (active)
